Experimental data as given in patent US12161723B2, “Water-based cannabinoid and opioid compositions” (DAY THREE LABS MAN[…]., priority 2014, dated 2024).

Columns and labels:
BSA [1] = target: T1, BSA (Bos taurus, UniProt P02769); assay: Cannabis smoke/vapor passed through BSA/water/ethanol solution, cannabinoid profile (Example 1d); type: binding, bovine; details: 33% ethanol, 48 hours incubation, washed
Procedure: (§1) To show which cannabinoid compounds are solubilized in processes using BSA versus organic solvents, cannabis from two different batches was smoked and or vaporized. Vapor was formed using a “volcano” vaporizer at a temperature of 210° C. The smoke/vapor was passed through either a BSA/water/ethanol solution described in example 1b, comprising 33% by volume ethanol or through a pure ethanol (99% ethanol) solution. Solutions were stirred using a magnetic stirrer and were incubated for 48 hours, during which time, most of the ethanol evaporated. One of the batches of cannabis was high in THC, and the other batch of cannabis was high in both THC and CBD.
The BSA/water/ethanol solution was washed after smoke or vapor was combined with it, and the amount of cannabinoids present was analyzed. The results of the comparison of relative concentration of cannabinoids (relative to total cannabinoid content) as expressed in percent (weight/weight), for a strain of cannabis high in THC are shown in the table below.

[2] = 3 g high THC strain; 200 ml ethanol concentrated to about 3 ml
albumin (BSA) = albumin (BSA) (Bos taurus, UniProt P02769); assay: Ethanolic cannabinoid solution mixed with aqueous albumin, protein-bound cannabinoid quantified (Example 2b); type: binding, bovine; parameters: protein-bound cannabinoid quantified, Vapor: unit not given beside the values; details: 100 microliters ethanolic solution + 500 microliters 5 mg/ml BSA, 30° C., 12 hours, non-adsorbed cannabinoids separated
Procedure: 100 microliters of ethanolic cannabinoid solution from cannabis vapor and cannabis smoke were each mixed with 500 microliters of aqueous albumin solution that had been prepared at a concentration of 5 mg albumin (BSA)/ml. The aqueous albumin solution combined with the ethanolic cannabinoid solution was incubated at 30° C. for 12 hours in open tubes. After 12 hours, the tubes were mixed and centrifuged, and non-adsorbed cannabinoids were separated from the solution. Concentrated protein-bound cannabinoid was dried and quantified as described below.

[3] = target: T2, rice recombinant human serum albumin (HSA) (Homo sapiens, UniProt P02768); assay: Cannabis vapor streamed through protein solution, cannabinoids adsorbed (Example 1f); type: binding; details: vapor of cannabis high in CBD; 1 mg/ml protein, ethanol:water 1:2, 30° C., 24 hours
T2 construct: host or cells: rice (recombinant expression host)
Procedure: (§2) The protein solutions were formed using ethanol and water in a 1:2 ratio. The solutions were incubated at 30° C. for 24 hours.

ovalbumin (hen) = target: T3, ovalbumin (hen) (Gallus gallus, UniProt P01012); assay: as above; type: binding; details: vapor of cannabis high in CBD; for percentage of each cannabinoid relative to total cannabinoids adsorbed to protein, Ovalbumin: 1 mg/ml protein, ethanol:water 1:2, 30° C., 24 hours
T3 sequence (P01012 1-386): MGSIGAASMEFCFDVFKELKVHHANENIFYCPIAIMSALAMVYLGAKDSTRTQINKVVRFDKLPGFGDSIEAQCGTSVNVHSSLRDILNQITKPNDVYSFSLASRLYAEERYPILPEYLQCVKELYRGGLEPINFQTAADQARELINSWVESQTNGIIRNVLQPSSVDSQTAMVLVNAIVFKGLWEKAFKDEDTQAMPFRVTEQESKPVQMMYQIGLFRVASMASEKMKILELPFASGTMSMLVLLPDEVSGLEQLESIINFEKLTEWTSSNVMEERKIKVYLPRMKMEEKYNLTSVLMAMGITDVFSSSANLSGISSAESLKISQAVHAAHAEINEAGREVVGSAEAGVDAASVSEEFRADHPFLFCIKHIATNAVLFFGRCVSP
Procedure: as §2

bovine γ-globulin = assay: as above; type: binding; details: vapor of cannabis high in CBD; 1 mg/ml protein, ethanol:water 1:2, 30° C., 24 hours
Procedure: as §2

BSA [4] = target: T1, BSA; assay: Cannabis extract combined with albumin solution, cannabinoids adsorbed to BSA (Example 2a); type: binding, bovine; details: albumin solution 10 mg/ml (BSA) with 20% ethanol, 2 hours at room temperature
Procedure: (§3) Cannabis extract was prepared as follows: In short, cannabis plant matter is dried, ground and homogenized to form ground cannabis. The ground cannabis is extracted with methanol/chloroform (volume/volume ratio of 9:1). Sonication and filtration is then performed. Identity of cannabinoids is determined by HPLC by evaporation, dissolution in an appropriate solvent.
(§4) Drying of the cannabis plant matter occurs under high vacuum at about 37±2° C. for about 24 hours and then ground to form a fine powder. 200 mg of ground powder is combined with 10 ml of methanol/chloroform, and sonicated in an ice bath for 30 minutes at maximum power. The supernatant is then filtered through a 0.2 micron filter.
(§5) A sample of the cannabis extract was analyzed for content of cannabinoids. The cannabis extract was then combined with albumin solution having 20% ethanol at 10 mg/ml (BSA) and incubated for 2 hours at room temperature.

[5] = Cannabis smoke/vapor passed through pure ethanol, cannabinoid profile (Example 1d); type: physicochemical; details: for relative concentration of cannabinoids (relative to total cannabinoid content), Vapor passed through ethanol: vapor at 210° C.
Procedure: as §1

[6] = Cannabinoid content of cannabis extract (Example 2a); type: physicochemical; details: methanol/chloroform 9:1 cannabis extract
Procedure: as §3, §4, §5

[7] = strain of cannabis high in CBD and THC

T1 sequence (P02769 25-607): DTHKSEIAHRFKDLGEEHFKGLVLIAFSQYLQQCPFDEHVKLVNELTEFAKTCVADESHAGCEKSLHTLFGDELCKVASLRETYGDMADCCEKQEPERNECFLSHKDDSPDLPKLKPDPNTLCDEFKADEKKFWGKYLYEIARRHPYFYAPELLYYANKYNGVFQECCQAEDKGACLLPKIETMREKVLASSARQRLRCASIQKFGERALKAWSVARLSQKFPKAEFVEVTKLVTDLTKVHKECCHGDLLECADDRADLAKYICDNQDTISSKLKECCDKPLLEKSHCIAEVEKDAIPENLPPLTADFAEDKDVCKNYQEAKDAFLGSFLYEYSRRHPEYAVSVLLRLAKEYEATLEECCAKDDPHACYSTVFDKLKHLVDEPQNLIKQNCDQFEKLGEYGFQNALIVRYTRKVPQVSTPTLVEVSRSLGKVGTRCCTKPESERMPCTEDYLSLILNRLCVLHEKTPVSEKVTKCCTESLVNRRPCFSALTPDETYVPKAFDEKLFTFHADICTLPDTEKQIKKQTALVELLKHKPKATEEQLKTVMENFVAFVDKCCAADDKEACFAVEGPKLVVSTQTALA
Sequence of albumin (BSA) (P02769 25-607): as above
T2 sequence (P02768 25-609): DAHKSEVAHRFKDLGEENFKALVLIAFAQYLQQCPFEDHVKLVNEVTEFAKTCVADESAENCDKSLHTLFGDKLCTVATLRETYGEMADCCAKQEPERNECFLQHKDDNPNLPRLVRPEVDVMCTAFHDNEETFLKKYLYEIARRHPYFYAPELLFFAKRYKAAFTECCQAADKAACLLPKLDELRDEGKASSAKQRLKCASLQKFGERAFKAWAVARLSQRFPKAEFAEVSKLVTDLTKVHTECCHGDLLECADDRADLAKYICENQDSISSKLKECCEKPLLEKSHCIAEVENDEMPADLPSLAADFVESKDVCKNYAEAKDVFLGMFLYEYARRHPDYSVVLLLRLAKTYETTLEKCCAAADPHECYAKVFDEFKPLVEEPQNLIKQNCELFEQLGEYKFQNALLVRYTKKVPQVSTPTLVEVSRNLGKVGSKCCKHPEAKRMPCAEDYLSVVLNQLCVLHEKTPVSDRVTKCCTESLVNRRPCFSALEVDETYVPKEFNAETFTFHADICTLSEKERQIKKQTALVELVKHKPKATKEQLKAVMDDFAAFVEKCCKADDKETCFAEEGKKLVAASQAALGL

Row | Molecule | relative concentration of cannabinoids (relative to total cannabinoid content), Smoke passed through BSA/water/ethanol (BSA [1]; [7]) | relative concentration of cannabinoids (relative to total cannabinoid content), Vapor passed through BSA/water/ethanol (BSA [1]; [7]) | relative concentration of cannabinoids (relative to total cannabinoid content), Smoke passed through BSA/water/ethanol (BSA [1]; strain of cannabis high in THC) | amount of cannabinoids dissolved in ethanol, Smoke [2] [micrograms/ml] | amount of cannabinoids dissolved in ethanol, Vapor [2] [micrograms/ml] | protein-bound cannabinoid quantified, Smoke (albumin (BSA)) | protein-bound cannabinoid quantified, Vapor (albumin (BSA)) | percentage of each cannabinoid relative to total cannabinoids adsorbed to protein, Rice recombinant HSA [3] [percentage] | percentage of each cannabinoid relative to total cannabinoids adsorbed to protein, Ovalbumin (ovalbumin (hen)) [percentage] | percentage of each cannabinoid relative to total cannabinoids adsorbed to protein, Bovine γ-globulin (bovine γ-globulin) [percentage] | percentage of each cannabinoid relative to total cannabinoids adsorbed to protein, Adsorbed to BSA after extract combined with BSA solution (BSA [4]) [percentage] | relative concentration of cannabinoids (relative to total cannabinoid content), Smoke passed through ethanol [5, 7] | relative concentration of cannabinoids (relative to total cannabinoid content), Vapor passed through ethanol [5, 7] | relative concentration of cannabinoids (relative to total cannabinoid content), Smoke passed through ethanol ([5]; strain of cannabis high in THC) | relative concentration of cannabinoids (relative to total cannabinoid content), Vapor passed through ethanol ([5]; strain of cannabis high in THC) | percentage of each cannabinoid relative to total cannabinoids, Extract [6] [percentage] | cannabinoid adsorbed per mg of protein (ovalbumin (hen); 1 mg/ml ovalbumin)
1 | C=C(C)[C@@H]1CCC(C)=C[C@H]1c1c(O)cc(CCCCC)cc1O [CBD, cannabidiol, reference compound] | 22.3 percent (weight/weight) | 33.4 percent (weight/weight) | 0.0 percent (weight/weight) | 0 | 17.2726 | 0 | 0 | 33 | 55.9 | 0 | 0 | 44.7 percent (weight/weight) | 51.1 percent (weight/weight) | 1.9 percent (weight/weight) | 0.3 percent (weight/weight) | 0 | –
2 | C=C(C)[C@@H]1CCC(C)=C[C@H]1c1c(O)cc(CCCCC)c(C(=O)O)c1O [CBDA, cannabidiolic acid] | 39.8 percent (weight/weight) | 23.6 percent (weight/weight) | 0.0 percent (weight/weight) | 0 | 3.1218 | 0 | 0 | 46 | 2.4 | 0 | 0 | 2.3 percent (weight/weight) | 1.6 percent (weight/weight) | 0.9 percent (weight/weight) | 0.4 percent (weight/weight) | 1 | –
3 | CCCCCc1cc(O)c(C/C=C(\C)CCC=C(C)C)c(O)c1 [CBG, cannabigerol] | 0.0 percent (weight/weight) | 0.0 percent (weight/weight) | 21.0 percent (weight/weight) | 292.063 | 183.6224 | 5.9 | 11.685 | 0 | 0 | 0 | 1 | 4.2 percent (weight/weight) | 1.5 percent (weight/weight) | 4.9 percent (weight/weight) | 1.2 percent (weight/weight) | 3 | –
4 | CCCCCc1cc(O)c2c(c1)OC(C)(C)[C@@H]1CC=C(C)C[C@@H]21 [DELTA-8-THC] | 0.0 percent (weight/weight) | 0.0 percent (weight/weight) | 0.0 percent (weight/weight) | 0 | 0 | 0 | 4.6 | – | – | – | – | 0.0 percent (weight/weight) | 0.0 percent (weight/weight) | 0.0 percent (weight/weight) | 0.0 percent (weight/weight) | – | –
5 | CCCc1cc(O)c2c(c1)OC(C)(C)[C@@H]1CCC(C)=C[C@@H]21 [THCV, tetrahydrocannabivarin] | 0.0 percent (weight/weight) | 0.0 percent (weight/weight) | 0.0 percent (weight/weight) | – | – | – | – | – | – | – | – | 2.4 percent (weight/weight) | 0.8 percent (weight/weight) | 2.4 percent (weight/weight) | 0.7 percent (weight/weight) | – | –
6 | ovalbumin: ovalbumin (hen) (protein, UniProt P01012 2-386, looked up) Ovalbumin: GSIGAASMEFCFDVFKELKVHHANENIFYCPIAIMSALAMVYLGAKDSTRTQINKVVRFDKLPGFGDSIEAQCGTSVNVHSSLRDILNQITKPNDVYSFSLASRLYAEERYPILPEYLQCVKELYRGGLEPINFQTAADQARELINSWVESQTNGIIRNVLQPSSVDSQTAMVLVNAIVFKGLWEKAFKDEDTQAMPFRVTEQESKPVQMMYQIGLFRVASMASEKMKILELPFASGTMSMLVLLPDEVSGLEQLESIINFEKLTEWTSSNVMEERKIKVYLPRMKMEEKYNLTSVLMAMGITDVFSSSANLSGISSAESLKISQAVHAAHAEINEAGREVVGSAEAGVDAASVSEEFRADHPFLFCIKHIATNAVLFFGRCVSP | – | – | – | – | – | – | – | – | – | – | – | – | – | – | – | – | about 4 micrograms of cannabinoid per mg of protein
